Assay results as given in ChEMBL document CHEMBL5230103, “Hydroxamic acid hybrids as the potential anticancer agents: An Overview” (Eur J Med Chem, 2020).
Values belong to the compound of their own block, whether it stands above or below them.

Assays:
MCF7 [1] = experiment: Cytotoxicity against human MCF7 cells assessed as inhibition of cell growth by MTT assay; assay type: functional, cell-based
518A2 [2] = experiment: Cytotoxicity against human 518A2 cells assessed as inhibition of cell growth by MTT assay; assay type: functional, cell-based
HT-29 [3] = experiment: Cytotoxicity against human HT-29 cells assessed as inhibition of cell growth by MTT assay; assay type: functional, cell-based
DLD-1 [4] = experiment: Cytotoxicity against human DLD-1 cells assessed as inhibition of cell growth by SRB assay; assay type: functional, cell-based
KB-V1 [5] = experiment: Cytotoxicity against human KB-V1 cells assessed as inhibition of cell growth by MTT assay; assay type: functional, cell-based
518A2 [6] = experiment: Potency index, ratio of vorinostat IC50 to test compound IC50 for cytotoxicity against human 518A2 cells; assay type: functional
HT-29 [7] = experiment: Potency index, ratio of vorinostat IC50 to test compound IC50 for cytotoxicity against human HT-29 cells; assay type: functional
DLD-1 [8] = experiment: Potency index, ratio of vorinostat IC50 to test compound IC50 for cytotoxicity against human DLD-1 cells; assay type: functional
KB-V1 [9] = experiment: Potency index, ratio of vorinostat IC50 to test compound IC50 for cytotoxicity against human KB-V1 cells; assay type: functional
MCF7 [10] = experiment: Potency index, ratio of vorinostat IC50 to test compound IC50 for cytotoxicity against human MCF7 cells; assay type: functional
EA.hy 926 = experiment: Potency index, ratio of vorinostat IC50 to test compound IC50 for cytotoxicity against human EA.hy 926 cells; assay type: functional
[11] = Cytotoxicity against human HDFa cells assessed as inhibition of cell proliferation by MTT assay; assay type: toxicity, cell-based
[12] = Selectivity index, ratio of IC50 for cytotoxicity against human HDFa cells to IC50 for cytotoxicity against human 518A2 cells; assay type: toxicity, cell-based; conditions: HDFa cells and 518A2 cells, pooled result: one value given for 6 cell lines, strains, targets or settings, read-out: Ratio IC50
[13] = Half life in CD1 mouse at 2 mg/kg, iv; assay type: ADME, organism-based; conditions: in vivo
[14] = Cmax in CD1 mouse at 2 mg/kg, iv; assay type: ADME, organism-based; design: dose 2 mg/kg, route iv; conditions: in vivo
[15] = AUCinfinity in CD1 mouse at 2 mg/kg, iv; assay type: ADME, organism-based; design: dose 2 mg/kg, route iv; conditions: in vivo
[16] = Clearance in CD1 mouse at 2 mg/kg, iv; assay type: ADME, organism-based; conditions: in vivo
Histone deacetylase 3 = Histone deacetylase 3 (Homo sapiens, UniProt O15379); experiment: Inhibition of HDAC3 (unknown origin)
Sequence of Histone deacetylase 3 (O15379 whole entry): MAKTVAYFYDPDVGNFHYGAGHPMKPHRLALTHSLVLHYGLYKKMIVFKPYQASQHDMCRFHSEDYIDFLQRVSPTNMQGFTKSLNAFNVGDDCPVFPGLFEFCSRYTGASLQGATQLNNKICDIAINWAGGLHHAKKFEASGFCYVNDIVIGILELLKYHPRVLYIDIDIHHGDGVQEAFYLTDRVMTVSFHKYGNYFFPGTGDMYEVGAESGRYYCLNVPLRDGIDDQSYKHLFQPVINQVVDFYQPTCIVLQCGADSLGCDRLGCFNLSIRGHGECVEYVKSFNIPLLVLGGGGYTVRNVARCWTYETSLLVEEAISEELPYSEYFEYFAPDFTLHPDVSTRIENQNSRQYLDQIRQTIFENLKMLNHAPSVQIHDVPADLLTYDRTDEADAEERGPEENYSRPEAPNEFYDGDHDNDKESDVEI

B16-F10 = experiment: Cytotoxicity against mouse B16-F10 cells assessed as inhibition of cell growth by MTT assay; assay type: functional, cell-based
A549 = experiment: Cytotoxicity against human A549 cells assessed as inhibition of cell growth by MTT assay; assay type: functional, cell-based
HeLa = experiment: Cytotoxicity against human HeLa cells assessed as inhibition of cell growth by MTT assay; assay type: functional, cell-based
Jurkat E6.1 = experiment: Cytotoxicity against human Jurkat E6.1 cells assessed as inhibition of cell growth by MTT assay; assay type: functional, cell-based
[17] = Cytotoxicity against HEK293 cells by MTT assay; assay type: toxicity, cell-based; conditions: human
[18] = Selectivity index, ratio of CC50 for cytotoxicity against HEK293 cells to IC50 for cytotoxicity against human A549 cells; assay type: toxicity, cell-based; conditions: HEK293 cells and A549 cells, read-out: Ratio CC50/IC50
[19] = Selectivity index, ratio of CC50 for cytotoxicity against HEK293 cells to IC50 for cytotoxicity against human HeLa cells; assay type: toxicity, cell-based; conditions: HEK293 cells and HeLa cells, read-out: Ratio CC50/IC50
[20] = Selectivity index, ratio of CC50 for cytotoxicity against HEK293 cells to IC50 for cytotoxicity against human MCF7 cells; assay type: toxicity, cell-based; conditions: HEK293 cells and MCF7 cells, read-out: Ratio CC50/IC50
[21] = Selectivity index, ratio of CC50 for cytotoxicity against HEK293 cells to IC50 for cytotoxicity against mouse B16-F10 cells; assay type: toxicity, cell-based; conditions: human, HEK293 cells and B16-F10 cells; read-out: Ratio CC50/IC50
[22] = Selectivity index, ratio of CC50 for cytotoxicity against HEK293 cells to IC50 for cytotoxicity against human Jurkat E6.1 cells; assay type: toxicity, cell-based; conditions: HEK293 cells and Jurkat E6.1 cells, read-out: Ratio CC50/IC50
MDA-MB-231 [23] = experiment: Cytotoxicity against human MDA-MB-231 cells assessed as inhibition of cell growth by MTS assay; assay type: functional, cell-based
MCF7 [24] = experiment: Cytotoxicity against human MCF7 cells assessed as inhibition of cell growth by MTS assay; assay type: functional, cell-based
T47D = experiment: Cytotoxicity against human T47D cells assessed as inhibition of cell growth by MTS assay; assay type: functional, cell-based
MDA-MB-231 [25] = experiment: animal or person; assay type: functional, Homo sapiens; conditions: Mus musculus, route po, read-out: TGI
Description: Antitumor activity against human MDA-MB-231 cells xenografted in mouse assessed as tumor growth inhibition at 25 mg/kg, po relative to control

PC-3 [26] = experiment: Cytotoxicity against human PC-3 cells assessed as inhibition of cell growth by MTT assay; assay type: functional, cell-based
Histone deacetylase 2 = Histone deacetylase 2 (Homo sapiens, UniProt Q92769); experiment: Inhibition of HDAC2 (unknown origin)
Sequence of Histone deacetylase 2 (Q92769 whole entry): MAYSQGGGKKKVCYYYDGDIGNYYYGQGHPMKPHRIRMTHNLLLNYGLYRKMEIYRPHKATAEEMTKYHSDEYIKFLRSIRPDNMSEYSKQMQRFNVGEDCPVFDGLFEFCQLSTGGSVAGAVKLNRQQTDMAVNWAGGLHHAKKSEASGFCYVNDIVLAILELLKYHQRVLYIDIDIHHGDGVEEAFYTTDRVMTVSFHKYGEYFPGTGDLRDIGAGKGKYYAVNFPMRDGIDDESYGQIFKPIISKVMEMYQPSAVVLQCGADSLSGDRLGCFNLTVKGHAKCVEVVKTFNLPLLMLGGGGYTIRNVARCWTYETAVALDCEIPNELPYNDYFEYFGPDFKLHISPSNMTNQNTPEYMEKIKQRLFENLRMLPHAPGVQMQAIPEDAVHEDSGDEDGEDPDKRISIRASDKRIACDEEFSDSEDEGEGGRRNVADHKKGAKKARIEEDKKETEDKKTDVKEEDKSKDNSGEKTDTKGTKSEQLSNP

SW-620 [27] = experiment: Cytotoxicity against human SW620 cells assessed as inhibition of cell growth by MTT assay; assay type: functional, cell-based
SW-620 [28] = experiment: Potency index, ratio of vorinostat IC50 to test compound IC50 for cytotoxicity against human SW620 cells assessed as inhibition of cell growth by MTT assay; assay type: functional
PC-3 [29] = experiment: Potency index, ratio of vorinostat IC50 to test compound IC50 for cytotoxicity against human PC-3 cells assessed as inhibition of cell growth by MTT assay; assay type: functional
ASPC1 = experiment: Potency index, ratio of vorinostat IC50 to test compound IC50 for cytotoxicity against human ASPC1 cells assessed as inhibition of cell growth by MTT assay; assay type: functional

SMILES: COc1ccc(-c2ocnc2-c2cc(Br)c(OC)c(OC)c2)cc1OCCCC(=O)NO
- IC50 (MCF7 [1]): 0.018 µM
- IC50 (518A2 [2]): 0.018 µM
- IC50 (HT-29 [3]): 0.018 µM
- IC50 (DLD-1 [4]): 0.018 µM
- IC50 (KB-V1 [5]): 0.018 µM
- Ratio IC50 (518A2 [6]): 1.2
- Ratio IC50 (HT-29 [7]): 1.2
- Ratio IC50 (DLD-1 [8]): 1.2
- Ratio IC50 (KB-V1 [9]): 1.2
- Ratio IC50 (MCF7 [10]): 1.2
- Ratio IC50 (EA.hy 926): 1.2
- IC50 [11]: 23.9 µM
- selectivity ratio [12]: 8.5

- half-life [13]: 1.65 h
- Cmax [14]: 2350 ng/mL
- AUC(0-inf) [15]: 1090 ng·h/mL
- clearance [16]: 30.7 mL/min/kg
SMILES: O=C(NO)C(c1ccccc1)c1c(-c2ccc3ccccc3c2)[nH]c2ccccc12 (centres undefined)

SMILES: O=C(CCCN1CCN(C(=O)Nc2cccc3ncccc23)CC1)NO
- IC50 (Histone deacetylase 3): 0.00442 µM
- IC50 (B16-F10): 7.19 µM
- IC50 (A549): 7.19 µM
- IC50 (HeLa): 7.19 µM
- IC50 (MCF7 [1]): 7.19 µM
- IC50 (Jurkat E6.1): 7.19 µM
- CC50 [17]: > 100 µM
- selectivity ratio [18]: > 8.7
- selectivity ratio [19]: > 8.7
- selectivity ratio [20]: > 8.7
- selectivity ratio [21]: > 8.7
- selectivity ratio [22]: > 8.7

SMILES: CCCCc1nc2cc(/C=C/C(=O)NO)ccc2n1CCN(CC)CC [PRACINOSTAT]
- IC50 (MDA-MB-231 [23]): 5.34 µM
- IC50 (MCF7 [24]): 5.34 µM
- IC50 (T47D): 5.34 µM
- inhibition in vivo at 25 mg/kg (MDA-MB-231 [25]): 50%

- IC50 (Histone deacetylase 2): 0.91 µM
SMILES: Cc1ccc2c(c1)/C(=N\O)C(=O)N2CCCC(=O)NO
- IC50 (PC-3 [26]): 0.49 µM
- IC50 (SW-620 [27]): 0.49 µM
- Ratio IC50 (SW-620 [28]): 4.3
- Ratio IC50 (PC-3 [29]): 4.3
- Ratio IC50 (ASPC1): 4.3
